The text below walks through data of ChEMBL document CHEMBL4033703, “Novel delta opioid receptor agonists with oxazatricyclodecane structure showing potent agonistic activities” (Bioorg Med Chem Lett, 2017).

Molecules are shown by their SMILES.

Assay [1] concerns the target T1, Mu-type opioid receptor (Homo sapiens, UniProt P35372). The assay is described as follows: Displacement of [3H]DAMGO from human mu opioid receptor expressed in CHO cells. Type of assay: cell-based.
The target of assay [2] is T2, Delta-type opioid receptor (Homo sapiens, UniProt P41143). As to the kind of experiment: Displacement of [3H]DPDPE from human delta opioid receptor expressed in CHO cells. In kind it is cell-based.
T2 sequence (P41143 whole entry): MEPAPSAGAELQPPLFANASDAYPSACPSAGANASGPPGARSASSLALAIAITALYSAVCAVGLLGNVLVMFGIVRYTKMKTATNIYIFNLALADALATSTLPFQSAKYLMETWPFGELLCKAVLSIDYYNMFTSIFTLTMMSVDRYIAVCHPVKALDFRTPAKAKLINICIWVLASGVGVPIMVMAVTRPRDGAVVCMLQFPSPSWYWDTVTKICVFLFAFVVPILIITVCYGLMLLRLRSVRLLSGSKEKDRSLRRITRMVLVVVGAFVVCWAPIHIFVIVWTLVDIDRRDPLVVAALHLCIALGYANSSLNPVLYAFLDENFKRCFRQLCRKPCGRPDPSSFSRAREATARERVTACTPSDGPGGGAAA
Assay [3] concerns the target T3, Kappa-type opioid receptor (Homo sapiens, UniProt P41145). The assay is described as follows: Displacement of [3H]U-69,593 from human kappa opioid receptor expressed in CHO cells. In kind it is cell-based.
Assay [4] deals with T1, Mu-type opioid receptor. As to the kind of experiment: Agonist activity at human mu opioid receptor expressed in CHO cells assessed as inhibition of forskolin-induced cAMP accumulation after 30 mins by Eu-cAMP tracer based TR-FRET assay. In kind it is functional, cell-based.
Assay [5] addresses T2, Delta-type opioid receptor. The assay is described as follows: Agonist activity at human delta opioid receptor expressed in CHO cells assessed as inhibition of forskolin-induced cAMP accumulation after 30 mins by Eu-cAMP tracer based TR-FRET assay. Type of assay: functional, cell-based.
In assay [6] the target is T2, Delta-type opioid receptor. The assay is described as follows: Agonist activity at human delta opioid receptor expressed in CHO cells assessed as inhibition of forskolin-induced cAMP accumulation after 30 mins by Eu-cAMP tracer based TR-FRET assay relative to SNC80. In kind it is functional, cell-based.
Assay [7] concerns the target T3, Kappa-type opioid receptor. As to the kind of experiment: Agonist activity at human kappa opioid receptor expressed in CHO cells assessed as inhibition of forskolin-induced cAMP accumulation at 10 uM after 30 mins by Eu-cAMP tracer based TR-FRET assay relative to U-69,593. Type of assay: functional, cell-based.
Assay [8] has as its target T1, Mu-type opioid receptor. As to the kind of experiment: Agonist activity at human mu opioid receptor expressed in CHO cells assessed as inhibition of forskolin-induced cAMP accumulation after 30 mins by Eu-cAMP tracer based TR-FRET assay relative to DAMGO. In kind it is functional, cell-based.
In assay [9] the target is T1, Mu-type opioid receptor. The assay is described as follows: Agonist activity at human mu opioid receptor expressed in CHO cells assessed as inhibition of forskolin-induced cAMP accumulation at 10 uM after 30 mins by Eu-cAMP tracer based TR-FRET assay relative to DAMGO. Type of assay: functional, cell-based.
Assay [10] concerns the target Delta-type opioid receptor (Mus musculus, UniProt P32300). As to the kind of experiment: Displacement of [3H]DPDPE from delta opioid receptor in mouse whole brain without cerebellum membrane.
The target in assay [11] is Mu-type opioid receptor (Mus musculus, UniProt P42866). The assay is described as follows: Displacement of [3H]DAMGO from mu opioid receptor in mouse whole brain without cerebellum membrane.
Chain of Mu-type opioid receptor (Mus musculus, UniProt P42866) (P42866 whole entry): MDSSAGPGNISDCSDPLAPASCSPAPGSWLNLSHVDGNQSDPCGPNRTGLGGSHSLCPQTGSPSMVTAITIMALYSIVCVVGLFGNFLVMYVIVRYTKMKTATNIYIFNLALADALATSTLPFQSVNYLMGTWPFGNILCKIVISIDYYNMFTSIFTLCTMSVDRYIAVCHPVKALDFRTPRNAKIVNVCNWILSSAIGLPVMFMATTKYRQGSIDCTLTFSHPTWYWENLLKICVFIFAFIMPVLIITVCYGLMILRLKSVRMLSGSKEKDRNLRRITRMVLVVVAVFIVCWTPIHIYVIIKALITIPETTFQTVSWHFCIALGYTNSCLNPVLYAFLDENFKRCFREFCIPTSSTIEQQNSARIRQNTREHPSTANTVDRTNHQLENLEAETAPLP
Assay [12] is described as follows: Selectivity ratio of Ki for kappa opioid receptor in guinea pig cerebellum membrane to Ki for delta opioid receptor in mouse whole brain without cerebellum. Type of assay: cell membranes.
A further assay is filed under the species Mus musculus. As to the kind of experiment: Selectivity ratio of Ki for mu opioid receptor in mouse whole brain without cerebellum to Ki for delta opioid receptor in mouse whole brain without cerebellum.
For assay [13], the target named is Kappa-type opioid receptor (Cavia porcellus, UniProt P41144). As to the kind of experiment: Displacement of [3H]U-69,593 from kappa opioid receptor in guinea pig cerebellum membrane. Type of assay: cell membranes.
Chain of Kappa-type opioid receptor (Cavia porcellus, UniProt P41144) (P41144 whole entry): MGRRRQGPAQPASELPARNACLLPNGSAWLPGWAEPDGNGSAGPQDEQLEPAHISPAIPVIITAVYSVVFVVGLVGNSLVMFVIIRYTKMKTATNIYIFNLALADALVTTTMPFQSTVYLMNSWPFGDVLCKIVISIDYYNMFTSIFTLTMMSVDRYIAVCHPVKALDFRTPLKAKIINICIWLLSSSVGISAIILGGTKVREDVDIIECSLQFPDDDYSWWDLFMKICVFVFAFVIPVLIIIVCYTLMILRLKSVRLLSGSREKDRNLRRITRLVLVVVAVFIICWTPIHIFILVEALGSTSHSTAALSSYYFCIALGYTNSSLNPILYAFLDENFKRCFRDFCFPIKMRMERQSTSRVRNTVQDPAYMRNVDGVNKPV
For assay [14], the target named is T3, Kappa-type opioid receptor. The assay is described as follows: Agonist activity at human kappa opioid receptor expressed in CHO cells assessed as inhibition of forskolin-induced cAMP accumulation after 30 mins by Eu-cAMP tracer based TR-FRET assay. Type of assay: functional, cell-based.
The target of assay [15] is T3, Kappa-type opioid receptor. As to the kind of experiment: Agonist activity at human kappa opioid receptor expressed in CHO cells assessed as inhibition of forskolin-induced cAMP accumulation after 30 mins by Eu-cAMP tracer based TR-FRET assay relative to U-69,593. Type of assay: functional, cell-based.

T3 sequence (P41145 whole entry): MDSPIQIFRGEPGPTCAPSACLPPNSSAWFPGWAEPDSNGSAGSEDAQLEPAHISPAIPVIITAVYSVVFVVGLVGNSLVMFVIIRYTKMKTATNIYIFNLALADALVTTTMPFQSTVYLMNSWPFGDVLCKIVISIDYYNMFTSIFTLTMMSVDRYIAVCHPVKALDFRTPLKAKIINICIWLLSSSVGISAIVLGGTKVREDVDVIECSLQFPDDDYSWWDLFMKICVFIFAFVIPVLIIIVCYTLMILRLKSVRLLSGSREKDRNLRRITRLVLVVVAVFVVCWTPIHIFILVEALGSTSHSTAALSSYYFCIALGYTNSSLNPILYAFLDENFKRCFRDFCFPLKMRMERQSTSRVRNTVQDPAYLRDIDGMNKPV
T1 sequence (P35372 whole entry): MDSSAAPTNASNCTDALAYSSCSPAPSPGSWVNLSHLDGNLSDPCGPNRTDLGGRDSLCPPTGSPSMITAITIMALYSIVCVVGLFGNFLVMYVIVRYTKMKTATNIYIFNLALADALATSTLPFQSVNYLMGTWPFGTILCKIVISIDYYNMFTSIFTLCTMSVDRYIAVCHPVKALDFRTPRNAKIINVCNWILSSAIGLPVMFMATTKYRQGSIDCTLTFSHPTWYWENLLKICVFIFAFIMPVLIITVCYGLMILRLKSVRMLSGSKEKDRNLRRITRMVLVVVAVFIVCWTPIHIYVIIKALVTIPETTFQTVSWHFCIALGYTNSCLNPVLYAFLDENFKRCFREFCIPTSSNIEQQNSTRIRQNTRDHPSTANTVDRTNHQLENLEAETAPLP
Chain of Delta-type opioid receptor (Mus musculus, UniProt P32300) (P32300 whole entry): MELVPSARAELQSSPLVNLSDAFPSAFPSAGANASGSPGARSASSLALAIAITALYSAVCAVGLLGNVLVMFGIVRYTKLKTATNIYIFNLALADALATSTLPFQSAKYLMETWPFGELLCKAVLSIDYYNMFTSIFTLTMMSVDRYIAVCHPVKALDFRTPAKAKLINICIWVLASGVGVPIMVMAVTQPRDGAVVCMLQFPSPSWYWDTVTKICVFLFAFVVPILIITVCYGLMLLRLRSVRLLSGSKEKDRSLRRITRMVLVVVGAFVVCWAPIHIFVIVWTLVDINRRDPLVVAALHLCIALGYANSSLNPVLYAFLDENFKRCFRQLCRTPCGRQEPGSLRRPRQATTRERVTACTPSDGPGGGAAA

`O=S(=O)(c1ccccc1)N1C[C@H]2OC34CCC1C2C31CCN(CC2CC2)C4Cc2ccc(O)cc21` (some centres not stated): the values for the Ki (at Mu-type opioid receptor [1]; in assay [2]; in assay [3]) were 0.308 nM, 0.221 nM and 0.658 nM, respectively. For the same compound, the EC50 on Mu-type opioid receptor [4] was determined as 2.5 nM; in assay [5], 1.2 nM. In addition, the figures for the Emax (in assay [6]; in [7]; at Mu-type opioid receptor [8]) were 66%, 19% and 54%, respectively.
Regarding `COCCCN1CC[C@]23Cc4nc5ccccc5cc4C[C@@]2(O)[C@H]1Cc1ccc(O)cc13`, in [5], the ED50 is 0.46 nM. The Emax is 25% on Mu-type opioid receptor [9], 95% in [6] and 14% in [7].
As to `C=CCN1CCC23c4cc(O)ccc4CC1C21CCC2C3[C@@H](CN2C(=O)c2ccccc2)O1` (some centres not stated), the inhibitory constant (Ki) turned out to be 0.109 nM in assay [10], 0.833 nM at Mu-type opioid receptor [11] and 2.54 nM in assay [13]. Moreover, the Ratio Ki amounted to 23 in [12] and 7.6 in the assay filed under Mus musculus. Further, in [5], the EC50 stood at 0.43 nM. The maximal effect (Emax) at Mu-type opioid receptor [9] was determined as 2.2%; in assay [6] it was 73%; in [7], 4.2%.
Regarding `CC(C)CN1CCC23c4cc(O)ccc4CC1C21CCC2C3[C@@H](CN2C(=O)c2ccccc2)O1` (some centres not stated), the Ki in [10] stood at 0.76 nM; on Mu-type opioid receptor [11], 4.48 nM; in assay [13], 6.25 nM. The Ratio Ki is 8.2 in assay [12] and 5.9 in the assay filed under Mus musculus. The EC50 in assay [5] was found to be 3 nM; in assay [14], 98 nM. Also, the Emax at Mu-type opioid receptor [9] was found to be 15%; in [6] it was 99%; in assay [15] it was 19%.
For the compound `O=C(c1ccccc1)N1C[C@H]2OC34CCC1C2C31CCN(CCc2ccccc2)C4Cc2ccc(O)cc21` (some centres not stated), the Ki in [10] was determined as 0.458 nM; at Mu-type opioid receptor [11] it was 0.548 nM; in assay [13], 34.1 nM. For the same compound, the figures for the Ratio Ki (in [12]; in the assay listed under Mus musculus) were 74 and 1.2, respectively. In addition, the concentration giving a half-maximal response (EC50) at Mu-type opioid receptor [4] was determined as 5.3 nM; in assay [5], 0.61 nM; in assay [14], 404 nM. The values for the Emax (in assay [6]; in assay [15]; on Mu-type opioid receptor [8]) were 100%, 56% and 109%, respectively.
Turning to `Oc1ccc2c(c1)C13CCN(CC4CC4)C(C2)C12CCC1C3[C@@H](CN1Cc1ccccc1)O2` (some centres not stated), the figures for the Ki (at Mu-type opioid receptor [1]; in assay [2]; in assay [3]) were 1.56 nM, 0.501 nM and 1.38 nM, respectively. In addition, the EC50 in assay [5] was 0.67 nM. Also, the Emax on Mu-type opioid receptor [9] worked out at 4.2%; in [6], 79%; in assay [7], 12%.
Consider `O=C(c1ccccc1)N1C[C@H]2OC34CCC1C2C31CCN(CC2CC2)C4Cc2ccc(O)cc21` (some centres not stated), for which the inhibitory constant (Ki) in assay [10] was found to be 0.274 nM; on Mu-type opioid receptor [11], 0.325 nM; at Mu-type opioid receptor [1], 0.627 nM; in assay [13], 1.21 nM; in [2], 0.154 nM; in assay [3], 1.05 nM. In addition, the results for the Ratio Ki (in [12]; in the assay listed under Mus musculus) were 4.4 and 1.2, respectively. Moreover, the EC50 in assay [5] is 0.54 nM. In addition, the Emax came to 3.9% at Mu-type opioid receptor [9], 96% in assay [6] and 2.9% in assay [7].
Turning to `COCCCN1CCC23c4cc(O)ccc4CC1C21CCC2C3[C@@H](CN2C(=O)c2ccccc2)O1` (some centres not stated), the Ki in assay [10] was 0.368 nM; at Mu-type opioid receptor [11], 3.94 nM; in [13], 20.3 nM. Moreover, the Ratio Ki amounted to 55 in assay [12] and 11 in the assay filed under Mus musculus. Also, the figures for the half-maximal effective concentration (EC50) (on Mu-type opioid receptor [4]; in assay [5]) were 22 nM and 1.4 nM, respectively. The values for the Emax (in assay [6]; in [7]; at Mu-type opioid receptor [8]) were 120%, 23% and 55%, respectively.
For the compound `CN1CCC23c4cc(O)ccc4CC1C21CCC2C3[C@@H](CN2C(=O)c2ccccc2)O1` (some centres not stated), the results for the Ki (in assay [10]; on Mu-type opioid receptor [11]; in [13]) were 0.301 nM, 0.383 nM and 31.3 nM, respectively. Also, the Ratio Ki in assay [12] worked out at 104; in the assay listed under Mus musculus, 1.3. In addition, the EC50 on Mu-type opioid receptor [4] stood at 5.9 nM; in [5] it was 0.43 nM; in assay [14], 50 nM. Also, the Emax in assay [6] was 94%; in [15] it was 96%; on Mu-type opioid receptor [8], 103%.
